Legend:
[1] = Volume of distribution at steady state in Sprague-Dawley rat at 2 mg/kg, iv or 2 mg/kg, po by LC-MS/MS analysis; type: ADME, organism-based; conditions: in vivo, read-out: Vdss
[2] = Clearance in Sprague-Dawley rat at 2 mg/kg, iv or 2 mg/kg, po by LC-MS/MS analysis; type: ADME, organism-based; conditions: in vivo
[3] = Oral bioavailability in Sprague-Dawley rat at 2 mg/kg by LC-MS/MS analysis; type: ADME, organism-based; conditions: in vivo
[4] = Half life in Sprague-Dawley rat at 2 mg/kg, iv by LC-MS/MS analysis; type: ADME, organism-based; conditions: in vivo
[5] = AUC in Sprague-Dawley rat at 2 mg/kg, po by LC-MS/MS analysis; type: ADME, organism-based; conditions: in vivo
[6] = Fraction unbound in Sprague-Dawley rat plasma; type: ADME, cell-free
[7] = Cmax in Sprague-Dawley rat at 2 mg/kg, po by LC-MS/MS analysis; type: ADME, organism-based; parameters: dose 2 mg/kg, route oral; conditions: in vivo
[8] = Cardiotoxicity in arterially perfused rabbit cardiac left ventricular wedge assessed as change in QT interval at 10 uM by electrophysiology assay; type: toxicity, tissue-based, Oryctolagus cuniculus, Heart left ventricle
[9] = Cardiotoxicity in arterially perfused rabbit cardiac left ventricular wedge assessed as change in isometric contractile force at 1 uM by electrophysiology assay (reference value: 0%); type: toxicity, tissue-based, Oryctolagus cuniculus, Heart left ventricle
[10] = Cardiotoxicity in arterially perfused rabbit cardiac left ventricular wedge assessed as QRS interval time at 3 uM by electrophysiology assay (reference value: 33.9 +/- 2.7 milliseconds); type: toxicity, tissue-based, Oryctolagus cuniculus, Heart left ventricle
[11] = Cardiotoxicity in arterially perfused rabbit cardiac left ventricular wedge assessed as change in isometric contractile force at 3 uM by electrophysiology assay (reference value: 0%); type: toxicity, tissue-based, Oryctolagus cuniculus, Heart left ventricle
[12] = Clearance in Sprague-Dawley rat at 1.1 mg/kg, iv or 2 mg/kg, po by LC-MS/MS analysis; type: ADME, organism-based; conditions: in vivo
[13] = Cardiotoxicity in arterially perfused rabbit cardiac left ventricular wedge assessed as Tp-e interval time at 0.3 uM by electrophysiology assay (reference value: 59.2 +/- 4.8 milliseconds); type: toxicity, tissue-based, Oryctolagus cuniculus, Heart left ventricle
[14] = Cardiotoxicity in arterially perfused rabbit cardiac left ventricular wedge assessed as Tp-e interval time at 1 uM by electrophysiology assay (reference value: 59.2 +/- 4.8 milliseconds); type: toxicity, tissue-based, Oryctolagus cuniculus, Heart left ventricle
[15] = Cardiotoxicity in arterially perfused rabbit cardiac left ventricular wedge assessed as change in isometric contractile force at 0.3 uM by electrophysiology assay (reference value: 0%); type: toxicity, tissue-based, Oryctolagus cuniculus, Heart left ventricle
[16] = Half life in Beagle dog at 1.1 mg/kg, iv by LC-MS/MS analysis; type: ADME, organism-based, Canis lupus familiaris; conditions: in vivo
[17] = Cardiotoxicity in arterially perfused rabbit cardiac left ventricular wedge assessed as QRS interval time at 10 uM by electrophysiology assay (reference value: 33.9 +/- 2.7 milliseconds); type: toxicity, tissue-based, Oryctolagus cuniculus, Heart left ventricle
[18] = Volume of distribution at steady state in Sprague-Dawley rat at 1.1 mg/kg, iv or 2 mg/kg, po by LC-MS/MS analysis; type: ADME, organism-based; conditions: in vivo, read-out: Vdss
[19] = Cardiotoxicity in arterially perfused rabbit cardiac left ventricular wedge assessed as Tp-e interval by electrophysiology assay; type: toxicity, tissue-based, Oryctolagus cuniculus, Heart left ventricle
[20] = Clearance in Beagle dog at 1.1 mg/kg, iv or 2 mg/kg, po by LC-MS/MS analysis; type: ADME, organism-based, Canis lupus familiaris; conditions: in vivo
[21] = Fraction unbound in Beagle dog plasma; type: ADME, cell-free, Canis lupus familiaris
[22] = Cardiotoxicity in arterially perfused rabbit cardiac left ventricular wedge assessed as change in QT interval at 3 uM by electrophysiology assay; type: toxicity, tissue-based, Oryctolagus cuniculus, Heart left ventricle
[23] = AUC in Beagle dog at 2 mg/kg, po by LC-MS/MS analysis; type: ADME, organism-based, Canis lupus familiaris; conditions: in vivo
[24] = Cardiotoxicity in arterially perfused rabbit cardiac left ventricular wedge assessed as QRS interval time at 1 uM by electrophysiology assay (reference value: 33.9 +/- 2.7 milliseconds); type: toxicity, tissue-based, Oryctolagus cuniculus, Heart left ventricle
[25] = Cmax in Beagle dog at 2 mg/kg, po by LC-MS/MS analysis; type: ADME, organism-based, Canis lupus familiaris; parameters: dose 2 mg/kg, route oral; conditions: in vivo
[26] = Cardiotoxicity in arterially perfused rabbit cardiac left ventricular wedge assessed as change in QT interval at 1 uM by electrophysiology assay; type: toxicity, tissue-based, Oryctolagus cuniculus, Heart left ventricle
[27] = Cardiotoxicity in arterially perfused rabbit cardiac left ventricular wedge assessed as Tp-e interval time at 10 uM by electrophysiology assay (reference value: 59.2 +/- 4.8 milliseconds); type: toxicity, tissue-based, Oryctolagus cuniculus, Heart left ventricle
[28] = Cardiotoxicity in arterially perfused rabbit cardiac left ventricular wedge assessed as Tp-e interval time at 3 uM by electrophysiology assay (reference value: 59.2 +/- 4.8 milliseconds); type: toxicity, tissue-based, Oryctolagus cuniculus, Heart left ventricle
[29] = Volume of distribution at steady state in Beagle dog at 1.1 mg/kg, iv or 2 mg/kg, po by LC-MS/MS analysis; type: ADME, organism-based, Canis lupus familiaris; conditions: in vivo, read-out: Vdss
[30] = Oral bioavailability in Beagle dog at 2 mg/kg by LC-MS/MS analysis; type: ADME, organism-based, Canis lupus familiaris; conditions: in vivo
[31] = Cardiotoxicity in arterially perfused rabbit cardiac left ventricular wedge assessed as QRS interval time at 0.3 uM by electrophysiology assay (reference value: 33.9 +/- 2.7 milliseconds); type: toxicity, tissue-based, Oryctolagus cuniculus, Heart left ventricle
[32] = Half life in Sprague-Dawley rat at 1.1 mg/kg, iv by LC-MS/MS analysis; type: ADME, organism-based; conditions: in vivo
[33] = system: Rattus norvegicus; assay: Time at which plasma concentration stays above in vitro human whole blood IC50 in Crl:CD(SD) rat peritonitis model at 2 mg/kg, po; type: ADME, organism-based; conditions: in vivo
[34] = Cardiotoxicity in arterially perfused rabbit cardiac left ventricular wedge assessed as change in QT interval at 0.3 uM by electrophysiology assay; type: toxicity, tissue-based, Oryctolagus cuniculus, Heart left ventricle
[35] = Cardiotoxicity in arterially perfused rabbit cardiac left ventricular wedge assessed as prolongation of QT interval by electrophysiology assay; type: toxicity, tissue-based, Oryctolagus cuniculus, Heart left ventricle
[36] = Cardiotoxicity in arterially perfused rabbit cardiac left ventricular wedge assessed as change in isometric contractile force at 10 uM by electrophysiology assay (reference value: 0%); type: toxicity, tissue-based, Oryctolagus cuniculus, Heart left ventricle
[37] = Half life in Sprague-Dawley rat at 1 mg/kg, iv by LC-MS/MS analysis; type: ADME, organism-based; conditions: in vivo

Cc1[nH]nc(Nc2ccnc3ccc(S(=O)(=O)C(C)(C)C)cc23)c1C
Vd [1]: 2.1 L/kg | clearance [2]: 12 mL/min/kg | bioavailability [3]: 82% | half-life [4]: 4.2 h | AUC [5]: 3800 ng·h/mL | fraction unbound [6]: 0.112 | Cmax [7]: 990 ng/mL

COc1cc2nccc(Nc3n[nH]c(C)c3C)c2cc1S(=O)(=O)C(C)(C)C
Activity [8]: 9.3% | Activity [9]: -17.3% | Time [10]: 35.2 ms | Activity [11]: -22.6% | clearance [12]: 12 mL/min/kg | Time [13]: 64.2 ms | Time [14]: 67.9 ms | Activity [15]: -9.9% | half-life [16]: 2.5 h | Time [17]: 36.3 ms | Vd [18]: 1.1 L/kg | Activity [19]: Dose-dependent effect | clearance [20]: 20 mL/min/kg | fraction unbound [21]: 0.163 | Activity [22]: 6.4% | AUC [23]: 1900 ng·h/mL | Time [24]: 35.4 ms | Cmax [25]: 330 ng/mL | Activity [26]: 3.6% | bioavailability [3]: 85% | Time [27]: 77 ms | Time [28]: 73.3 ms | Vd [29]: 3.5 L/kg | bioavailability [30]: 96% | Time [31]: 34.9 ms | half-life [32]: 3.1 h | Time [33]: 24 h | AUC [5]: 2400 ng·h/mL | Activity [34]: 2% | Activity [35]: Dose-dependent effect | Activity [36]: -28% | fraction unbound [6]: 0.055 | Cmax [7]: 740 ng/mL

CC(C)(C)S(=O)(=O)c1ccc2nccc(Nc3n[nH]c4ccc(F)cc34)c2c1
half-life [37]: 7 h | Time [33]: 4 h | fraction unbound [6]: 0.026
